According to patent US20220387325A1, “METHOD FOR MANUFACTURING DISPERSION OF ULTRAFINE PARTICLES OF POORLY SOLUBLE SUBSTANCE” (NANO CUBE JAPAN CO., LTD., priority 2019, published 2022):

Legend:
[1] = physchem; conditions: for solubility at 1 h: water, thermodynamic from solid
Method: To 100 mL of the liquid thus obtained, 100 mL of water was added and acetone was distilled off by concentration under reduced pressure to obtain a water dispersion of ultrafine particles of coenzyme Q10.
(§1) To 100 mL of the liquid thus obtained, 100 mL of water was added and acetone was distilled off by concentration under reduced pressure to obtain a water dispersion of ultrafine particles of busulfan. […] The solubility was measured in the same manner as in Example 1, except that busulfan was used in place of coenzyme Q10.
as §1, with “ethanol” for “acetone”, “docetaxel.” for “busulfan.”, “docetaxel” for “busulfan”
as §1, with “ethanol” for “acetone”, “paclitaxel.” for “busulfan.”, “paclitaxel” for “busulfan”
To 100 mL of the liquid thus obtained, 100 mL of water was added and ethanol was distilled off by concentration under reduced pressure to obtain a water dispersion of ultrafine particles of azadirachtin.
To 100 mL of the liquid thus obtained, 100 mL of 1-butanol was added and water was distilled off by concentration under reduced pressure to obtain a 1-butanol dispersion of ultrafine particles of ascorbic acid.

[2] = physchem; conditions: 25 °C, organic solvent or mixture
[3] = Solubility in good solvent; conditions: for solubility: organic solvent or mixture

## C/C=C(\C)C(=O)O[C@H]1C[C@@H](OC(C)=O)[C@@]2(C(=O)OC)CO[C@H]3[C@@H](O)[C@@](C)([C@]45O[C@@]4(C)[C@H]4C[C@@H]5O[C@@H]5OC=C[C@@]54O)[C@H]4[C@]1(CO[C@]4(O)C(=O)OC)[C@@H]32 [azadirachtin]
[1]; 20 °C
  solubility at 1 h: ≤ 0.1 mg/mL
[2]
  solubility: ≥ 30 mg/mL

## CC(=O)O[C@@]12CO[C@@H]1C[C@H](O)[C@@]1(C)C(=O)[C@H](O)C3=C(C)[C@@H](OC(=O)[C@H](O)[C@@H](NC(=O)OC(C)(C)C)c4ccccc4)C[C@@](O)([C@@H](OC(=O)c4ccccc4)[C@H]21)C3(C)C [docetaxel]
[1]; 25 °C
  solubility at 1 h: ≤ 0.01 mg/mL
[3]; ethanol, 60 °C
  solubility: ≥ 20 mg/mL

## COC1=C(OC)C(=O)C(C/C=C(\C)CC/C=C(\C)CC/C=C(\C)CC/C=C(\C)CC/C=C(\C)CC/C=C(\C)CC/C=C(\C)CC/C=C(\C)CC/C=C(\C)CCC=C(C)C)=C(C)C1=O [coenzyme Q10]
[1]
  solubility in water: ≤ 0.01 mg/mL
[3]; acetone, 25° C.
  solubility in acetone: ≥ 30 mg/mL

## CS(=O)(=O)OCCCCOS(C)(=O)=O [busulfan]
[1]; 25 °C
  solubility at 1 h: ≤ 0.01 mg/mL
[3]; acetone, 50 °C
  solubility: ≥ 30 mg/mL

## CC(=O)O[C@H]1C(=O)[C@@]2(C)[C@H]([C@H](OC(=O)c3ccccc3)[C@]3(O)C[C@H](OC(=O)[C@H](O)[C@@H](NC(=O)c4ccccc4)c4ccccc4)C(C)=C1C3(C)C)[C@]1(OC(C)=O)CO[C@@H]1C[C@@H]2O [paclitaxel]
[1]; 25 °C
  solubility at 1 h: ≤ 0.01 mg/mL
[3]; ethanol, 25 °C
  solubility: ≥ 30 mg/mL
